Assay results reported in US20120070392A1, “COMPOSITION FOR INHIBITING ERYTHEMA CAUSED BY ULTRAVIOLET RADIATION CONTAINING A DIPEPTIDE AS ACTIVE INGREDIENT” (priority 2009, published 2012).

What follows are molecules tested on PGE2 production (assay: Inhibition of UVB-induced PGE2 production in cultured human keratinocytes (PGE2 assay kit, calibrated with MTT absorbance)). Settings: not given.
Format: cell-based
Description: Human keratinocytes were seeded at a density of 1×10^5 cells/well to 6-well plates containing 2 mL of KGM(keratinocyte growth medium, Clonetics, San Diego, Calif., USA) per well and cultured overnight. Then, the medium was replaced with KBM(keratinocyte basal medium) supplemented with 0.1% BSA(bovine serum albumin) and the cells were cultured for an additional 24 hours. Subsequently, the cells were pre-treated for an additional 24 hours with 2 mL of the same medium containing 10 μg/ml of each of the dipeptides listed in Table 1. […] The pre-treated medium was transferred to new 24 well plates and 1 mL of DPBS(Dulbecco's phosphate buffered saline) was added to the cells in each well. During UV irradiation, the transferred medium was stored in a cell incubator. […] At this time, the control was covered with aluminum foil. After the removal of DPBS, the transferred medium was returned to each well. The cells were further cultured for 24 hours, after which 1 mL of the medium was transferred to microcentrifuge tubes. […] The supernatants were then removed and the formazan crystals were solubilized in 1 ml of DMSO(dimethylsulfoxide). One hundred μL of the solution was transferred to each well of 96-well plates and an optical density was determined at 540 nm using an ELISA(enzyme-linked immunosorbent assay) reader. […] The concentration of PGE2 was determined using a PGE2 Assay Kit(KGE004, R&D Systems, Inc., Minneapolis, Minn., USA) according to the manufacturer's instruction. […] After removal of the reaction, the wells were washed five times with 400 μL of wash buffer. To each well was added 200 μL of a substrate solution, followed by incubation for 20 30 min. The reaction was terminated with 50 μL of a stop solution per well before determining absorbance at 450 nm on an ELISA reader. The PGE2 concentration of each sample was calculated from the standard graph and calibrated with the absorbance obtained in the MTT assay to determine their inhibitory activity against PGE2 production.

Molecule	% Inhibition against PGE2 Production [%]
N=C(N)NCCC[C@H](N)C(=O)O.NCC(=O)O [RG, arginine-glycine]	82.8
proline-asparagine [PN]	32.7
valine-valine [VV]	89.9
asparagine-serine [NS]	31.9
serine-methionine [SM]	75.1
cysteine-methionine [CM]	69.7
isoleucine-proline [IP]	59.5
valine-lysine [VK]	42.0
serine-proline [SP]	94.7
cysteine-asparagine [CN]	92.0
threonine-proline [TP]	65.7
alanine-proline [AP]	26.3
proline-tryptophan [PW]	85.5
valine-histidine [VH]	47.6
proline-threonine [PT]	21.7
valine-tyrosine [VY]	83.2
histidine-leucine [HL]	36.3
asparagine-cysteine [NC]	83.1
asparagine-methionine [NM]	89.5

Molecule	% Inhibition against PGE2 Production [%]
glutamic acid-tyrosine [EY]	75.9
threonine-valine [TV]	43.9
proline-arginine	76.4
lysine-tyrosine [KY]	72.6
proline-tyrosine [PY]	24.8
arginine-proline [RP]	88.7
serine-asparagine [SN]	49.9
leucine-histidine [LH]	81.7
tryptophan-methionine [WM]	50.6
tyrosine-isoleucine [YI]	44.3
tyrosine-leucine [YL]	24.7
methionine-tyrosine [MY]	91.7
histidine-proline [HP]	26.3
methionine-tryptophan [MW]	76.4
arginine-methionine [RM]	84.7
aspartic acid-methionine [DM]	63.1
asparagine-tyrosine [NY]	58.1
glutamine-histidine [QH]	14.8
glycine-glycine [GG]	26.1

Same assay, conditions: 10 μg/ml dipeptide, 24 h pre-treatment, human keratinocytes, UVB 100 mJ/cm^2, medium assayed 24 h after irradiation; 0% or lower expressed as zero; 10% or more regarded as effective

Molecule	% Inhibition against PGE2 Production [%]
valine-praline [VP]	50.5
tyrosine-alanine [YA]	80.2
phenylalanine-phenylalanine [FF]	70.5
alanine-alanine [AA]	78.4
NCC(=O)O.N[C@@H](Cc1c[nH]c2ccccc12)C(=O)O [WG, tryptophan-glycine]	91.3
leucine-alanine	47.2

Same assay, conditions: 10 μg/ml dipeptide, 24 h pre-treatment, human keratinocytes, UVB 100 mJ/cm^2, medium assayed 24 h after irradiation; […]; 10% or more regarded as effective

Molecule	% Inhibition against PGE2 Production [%]
valine-phenylalanine [VF]	12.2
glutamine-arginine [QR]	33.6
glutamine-threonine [QT]	25.0
serine-leucine [SL]	81.6
threonine-tryptophan [TW]	54.8
glutamic acid-isoleucine [EI]	74.0
tryptophan-lysine [WK]	78.3
alanine-leucine	48.9
valine-arginine [VR]	52.5
aspartic acid-tryptophan [DW]	67.3
leucine-threonine [LT]	53.4
valine-aspartic acid [VD]	45.3
leucine-phenylalanine [LF]	90.2
alanine-glutamine [AQ]	69.0
asparagine-glutamine [NQ]	70.1
leucine-arginine [LR]	52.0
aspartic acid-glutamine [DQ]	52.4
asparagine-leucine [NL]	72.6
glutamic acid-valine [EV]	86.4
tryptophan-histidine [WH]	96.1
arginine-threonine [RT]	27.5
phenylalanine-isoleucine [FI]	45.8
arginine-aspartic acid [RD]	24.1
cysteine-glutamine [CQ]	93.9
aspartic acid-alanine [DA]	94.1
arginine-serine [RS]	50.3

Molecule	% Inhibition against PGE2 Production [%]
serine-cysteine [SC]	77.7
phenylalanine-aspartic acid [FD]	13.7
arginine-arginine [RR]	90.5
leucine-valine [LV]	79.9
lysine-cysteine [KC]	20.2
glutamic acid-arginine [ER]	72.8
aspartic acid-cysteine [DC]	77.6
threonine-phenylalanine [TF]	77.3
isoleucine-valine [IV]	70.9
aspartic acid-isoleucine [DI]	25.9
glutamic acid-leucine [EL]	56.2
phenylalanine-lysine [FK]	73.3
valine-leucine [VL]	47.0
arginine-tryptophan [RW]	34.9
glutamic acid-threonine [ET]	67.9
glutamine-tryptophan [QW]	42.8
arginine-lysine [RK]	88.2
lysine-tryptophan [KW]	76.9
tryptophan-arginine [WR]	83.7
serine-isoleucine [SI]	50.3
isoleucine-serine	66.0
glutamic acid-glutamic acid [EE]	86.5
glutamic acid-alanine [EA]	55.3
isoleucine-aspartic acid	64.6
alanine-lysine [AK]	90.3
arginine-cysteine [RC]	95.1
